Reference: patent US7910621B2, “Small molecule antagonists of XIAP family proteins” (The Regents of the University of Michigan, priority 2004, dated 2011)

What was measured:
[1] = tested on: Jurkat-XIAP cells; assay: Cell growth assay, Jurkat-XIAP; type: cell-based; settings: essentially identical to that in Jurkat-Vec cells
Procedure: (§1) FIG. 9 presents inhibition of cell growth by embelin in Jurkat-Vec and Jurkat-XIAP cells. The cell growth results are expressed as the percent of control and calculated from the percent of absorbance of treated wells versus that of vehicle control.
(§2) Human prostate cancer cell lines (PC-3, LNCap, CL-1, DU-145), and normal human fibroblast cell line WI-38 were obtained from the American Type Culture Collection (ATCC), were grown and maintained in Dulbecco's modified Eagle's medium (DMEM) containing 10% FBS (Invitrogen Corporation). Normal human prostate epithelial cells (PrEC) were obtained from Clonetics (Cambrex Inc., MD) and maintained in the special medium provided by the company. Jurkat T-cells stably transfected with either empty vector (Jurkat-Vec), or XIAP (Jurkat-XIAP) and were cultured in RPMI 1640 containing 10% fetal calf serum and 1 ug/ml puromycin. Cell cultures were maintained in a humidified incubator at 37° C. and 5% CO2.
Cell growth was determined by the MTT-based assay using Cell Proliferation Reagent WST-1 (Roche) according to the manufacturer's instruction. The WST-1 assay is a colorimetric assay that measures the reduction of WST-1 by mitochondrial succinate dehydrogenase, which belongs to the respiratory chain of the mitochondria and is active only in viable cells. The WST-1 enters the cells and passes into the mitochondria, where it is reduced to a soluble, colored formazan product. The amount of formazan dye formed directly correlates to the number of metabolically active cells in the culture. Cells (5000 cells/well) were grown in medium with 10% FBS, and various concentrations of drugs were added to the cells in triplicate. […] Absorbance was measured with a plate reader at […] with correction at […]. The results are expressed as the percent of absorbance of treated wells versus that of vehicle control.

[2] = tested on: PC-3 prostate cancer cells; assay: WST-1 cell growth inhibition assay, PC-3; type: cell-based; settings: Homo sapiens, 120 h; PC-3, WST-1, five days
Procedure: (§3) FIG. 5 presents inhibition of cell growth by embelin in prostate cancer cells (PC-3 and LnCap) and its selectivity in normal human prostate epithelial cells (PrEC) and normal human fibroblast cell line, WI-38. 5000 cells per well in a 96-well cell culture plate were treated with various concentrations of embelin in triplicate. Five days later, the cell growth was measured by the WST-1 cell growth assay kit […] The cell growth results are expressed as the percent of control and calculated from the percent of absorbance of treated wells versus that of vehicle control.
(§4) Human prostate cancer cell lines (PC-3, LNCap, CL-1, DU-145), and normal human fibroblast cell line WI-38 were obtained from the American Type Culture Collection (ATCC), were grown and maintained in Dulbecco's modified Eagle's medium (DMEM) containing 10% FBS (Invitrogen Corporation). Normal human prostate epithelial cells (PrEC) were obtained from Clonetics (Cambrex Inc., MD) and maintained in the special medium provided by the company. […]
(§5) Cell growth was determined by the MTT-based assay using Cell Proliferation Reagent WST-1 (Roche) according to the manufacturer's instruction. […] Absorbance was measured with a plate reader at […] with correction at […]. The results are expressed as the percent of absorbance of treated wells versus that of vehicle control.

[3] = tested on: LNCap prostate cancer cells; assay: WST-1 cell growth inhibition assay, LNCaP; type: cell-based; settings: Homo sapiens, 120 h, WST-1, five days
Procedure: as §3, §4, §5

[4] = biological target: XIAP BIR3 protein of human XIAP (residues 241-356) (Homo sapiens, UniProt P98170); settings: read-out: IC50 (displacement of SM7F from XIAP BIR3); 10 nM SM7F, 0.060 μM XIAP BIR3; three independent experiments in triplicate
[5] = tested on: Jurkat-Vec cells; assay: Cell growth assay, Jurkat-Vec; type: cell-based; settings: read-out: IC50 cell growth inhibition
Procedure: as §1, §2, §5

[6] = biological target: T1, human XIAP-BIR3 domain (residues 241-356) (Homo sapiens, UniProt P98170); assay: 15N-HSQC NMR binding confirmation; settings: 100 μM protein, 100 μM embelin, 30° C.
T1 construct: The human XIAP-BIR3 domain (residues 241-356) fused to His-tag; His-tag (pET-28b); made in house; host or cells: Escherichia coli BL21(DE3)
Procedure: To conclusively confirm that embelin binds to the XIAP BIR3 domain where Smac and caspase-9 bind, and to rule out any potential false positive, an analysis using nuclear magnetic resonance (NMR) Heteronuclear Single Quantum Coherence Spectroscopy (HSQC) method was performed. The human XIAP-BIR3 domain (residues 241-356) fused to His-tag was expressed in M9 medium containing ^15N ammonium chloride to uniformly label protein with ^15N and was purified. ^15N HSQC NMR spectra were recorded with embelin and without embelin at 30° C. […]
The NMR experiments were performed on a Varian Inova 500 with pulse field gradient (PFG) HSQC, with the water flip back to maximize the signal intensity and to minimize the destruction from the water signal (see, e.g., Grzesiek, S., et al., J. Am. Chem. Soc. 115, 12593-94 (1993); Sheppard, G. S., et al., Abstr. Pap.-Am. Chem. Soc. 213, 81 (1997)) (300 μM XIAP, 50 mM phosphate buffer pH 7.3, 2 mM DTT at 25° C.). ^15N HSQC NMR spectra were recorded with samples containing 100 μM of the ^15N protein in 50 mM Tris (pH 7.2), 50 μM Zn(Cl)2, 1 mM DTT at 30° C. with 100 μM embelin and without it. […]

XIAP BIR3 protein of human XIAP (residues 241-356), sequence (P98170 241-356): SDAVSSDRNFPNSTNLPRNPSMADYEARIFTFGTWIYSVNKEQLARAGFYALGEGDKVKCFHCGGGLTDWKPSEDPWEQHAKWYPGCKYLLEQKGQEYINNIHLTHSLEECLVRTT
T1 sequence (P98170 241-356): as above

SMILES: CCCCCCCCCCCC1=C(O)C(=O)C=C(O)C1=O [embelin]
- activity in cell growth assay [1]: weak activity
- IC50 [2]: 3.7 µM
- IC50 [3]: 5.7 µM
- IC50 [4]: 4.1 ± 1.1 µM
- IC50 [5]: 20 µM
- binding site on XIAP BIR3 by 15N HSQC NMR [6]: binds to the surface groove in the XIAP BIR3 domain where Smac and caspase-9 bind
